These results are taken from PubChem BioAssay (NCI).

Where “and” joins values, the source holds several entries; their conditions need not be identical. Identical values can stand only once.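 Briefly, cells in 96-well plates were exposed to five compound concentrations for 48 h, and endpoints were estimated by linear interpolation. GI50 marks 50% less growth. TGI is the concentration that stops growth completely.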

Among the test systems are MCF7 breast; MDA-MB-435; A498 renal; PC-3 prostate; RXF 393 renal; OVCAR-4 ovarian; CAKI-1 renal; SR leukemia; OVCAR-8 ovarian; HCT-15 colon.
Common to all, as to assay: NCI anticancer screen, dose series, 48 h

Turning to `COc1ccc(-c2cc(/C=C3\C(=O)Nc4cc(Cl)ccc43)[nH]n2)cc1`, the GI50 with MCF7 breast is 2.19 µM; in the test on MDA-MB-435, 0.416 µM; with A498 renal, 2.38 µM; in the test on PC-3 prostate, 2.75 µM; in the test with RXF 393 renal it was 2.03 µM; with OVCAR-4 ovarian, 6.79 µM. Moreover, the GI50 in the test with CAKI-1 renal was 1.63 µM; with SR leukemia it was 2.44 µM; in the test with OVCAR-8 ovarian it was 4.55 µM; with HCT-15 colon it was 2.53 µM. The TGI with MCF7 breast was 37.3 µM; in the test on MDA-MB-435, 2.11 µM; in the test on A498 renal it was 7.04 µM; in the test with PC-3 prostate it was above 100 µM; in the test on RXF 393 renal, 7.36 µM; in the test with OVCAR-4 ovarian, 94.1 µM. In addition, the TGI was 21.6 µM in the test on CAKI-1 renal, 14.1 µM in the test with SR leukemia, 98.6 µM in the test on OVCAR-8 ovarian and above 100 µM in the test with HCT-15 colon.
Regarding `COc1cc(OC)cc(Oc2cnc3cc(N)cc(N)c3n2)c1`, the GI50 was 20.5 µM with MCF7 breast; 2.87 µM with MDA-MB-435; 11.8 µM with A498 renal; 24.7 µM in the test with PC-3 prostate; 15.4 µM in the test on RXF 393 renal; 9.07 µM with OVCAR-4 ovarian. For the same compound, the GI50 was 13 µM in the test with CAKI-1 renal, 11.3 µM in the test with SR leukemia, 22.6 µM with OVCAR-8 ovarian and 18.3 µM in the test on HCT-15 colon. Besides, the TGI with MCF7 breast worked out at 49.3 µM; in the test with MDA-MB-435, 6.76 µM; in the test with A498 renal it was 39.9 µM; in the test with PC-3 prostate it was 56 µM; in the test with RXF 393 renal, 29 µM; in the test with OVCAR-4 ovarian, 21.8 µM. Moreover, the TGI in the test on CAKI-1 renal worked out at 27.7 µM; in the test with SR leukemia it was 26.1 µM; in the test on OVCAR-8 ovarian it was 52.5 µM; with HCT-15 colon it was 45.1 µM.
Take `O=C1Nc2ccccc2/C1=C\c1c(-c2ccccc2)nc2sccn12`: the GI50 with MCF7 breast was 2.95 µM; with MDA-MB-435 it was 0.354 µM; with A498 renal it was 0.927 µM; with PC-3 prostate, 1.95 µM; in the test on RXF 393 renal, 3.35 µM; in the test with OVCAR-4 ovarian, 12.6 µM. Besides, the GI50 was 1.29 µM in the test with CAKI-1 renal, 0.309 µM with SR leukemia, 4.58 µM with OVCAR-8 ovarian and 1.08 µM in the test on HCT-15 colon. Also, the TGI worked out at 22.7 µM in the test with MCF7 breast; 0.943 µM with MDA-MB-435; 5.33 µM with A498 renal; 17.4 µM in the test on PC-3 prostate; 26.6 µM in the test with RXF 393 renal; 62.8 µM in the test with OVCAR-4 ovarian. Further, the TGI with CAKI-1 renal is 4.74 µM; with SR leukemia it was 0.976 µM; in the test with OVCAR-8 ovarian it was above 100 µM; with HCT-15 colon, 8.39 µM.
`Cc1ccccc1C1=C(c2cn(C)c3ccccc23)C(=O)NC1=O`: the GI50 with MCF7 breast is 9.2 µM; with MDA-MB-435, above 21.5 µM; in the test with A498 renal, 6.52 µM; in the test on PC-3 prostate it was 9.74 µM; in the test on RXF 393 renal, 7.02 µM; in the test with OVCAR-4 ovarian, above 21.1 µM. For the same compound, the GI50 in the test with CAKI-1 renal was 10.2 µM; in the test on SR leukemia, 7.78 µM; in the test with OVCAR-8 ovarian, above 22.5 µM; with HCT-15 colon, 10.7 µM. Further, the TGI in the test with MCF7 breast is above 25 µM; with MDA-MB-435 it was above 25 µM; with A498 renal, 20.7 µM; with PC-3 prostate, above 25 µM; in the test on RXF 393 renal it was above 25 µM; in the test with OVCAR-4 ovarian, above 25 µM. The TGI in the test on CAKI-1 renal, with SR leukemia, in the test on OVCAR-8 ovarian and with HCT-15 colon was above 25 µM throughout.
Take `Oc1cc(N2CC2)c(O)cc1N1CC1`: the GI50 is 0.387 µM in the test with MCF7 breast; 1.37 µM in the test with MDA-MB-435; 0.581 µM in the test with A498 renal; 1.85 µM in the test on PC-3 prostate; 0.358 µM with RXF 393 renal; 2.28 µM in the test with OVCAR-4 ovarian. The GI50 with CAKI-1 renal is 0.086 µM; in the test on SR leukemia, 0.159 µM; in the test with OVCAR-8 ovarian, 1.25 µM; in the test with HCT-15 colon, 0.727 µM. The TGI came to 4.21 µM in the test on MCF7 breast; 3.32 µM in the test with MDA-MB-435; 2.55 µM with A498 renal; 14.6 µM with PC-3 prostate; 1.21 µM in the test on RXF 393 renal; 8.9 µM in the test with OVCAR-4 ovarian. Moreover, the TGI was 0.332 µM in the test on CAKI-1 renal, 4.03 µM in the test with SR leukemia, 9.44 µM in the test on OVCAR-8 ovarian and 10.4 µM in the test with HCT-15 colon.
As to `CC1(C)CC(=O)C=C(/C=C/Sc2c(Cl)c(Cl)nc(Cl)c2Cl)C1`, the GI50 was 2.47 µM in the test on MCF7 breast; 2.88 µM in the test on MDA-MB-435; 21.7 µM in the test with A498 renal; 3.54 µM with PC-3 prostate; 7.61 µM in the test on RXF 393 renal; 20.3 µM with OVCAR-4 ovarian. The GI50 is 2.23 µM in the test with CAKI-1 renal, 3.89 µM with SR leukemia, 19.3 µM in the test with OVCAR-8 ovarian and 5.64 µM with HCT-15 colon. Also, the TGI in the test with MCF7 breast turned out to be 8.05 µM; with MDA-MB-435 it was 8.2 µM; in the test on A498 renal it was 36.6 µM; in the test on PC-3 prostate, 14.1 µM; in the test on RXF 393 renal, 22 µM; in the test with OVCAR-4 ovarian it was 57.9 µM. The TGI with CAKI-1 renal was 5.4 µM; in the test with SR leukemia it was above 100 µM; with OVCAR-8 ovarian it was 45 µM; in the test with HCT-15 colon it was 23 µM.
As to `N#Cc1c(NCc2ccccc2)nc(NCc2ccccc2)c(C#N)c1-c1ccc(Cl)cc1`, the GI50 is > 50 µM and 66.8 µM with MCF7 breast; > 50 µM and 43.6 µM with MDA-MB-435; > 50 µM and 33 µM in the test on A498 renal; > 50 µM and 61.2 µM in the test on PC-3 prostate; 65.5 µM with RXF 393 renal; > 50 µM and 23.9 µM in the test with OVCAR-4 ovarian. Also, the GI50 with CAKI-1 renal was above 100 µM; with SR leukemia, > 50 µM and 19.7 µM; in the test with OVCAR-8 ovarian, > 50 µM and 45.7 µM; in the test with HCT-15 colon, above 100 µM. Further, the TGI in the test on MCF7 breast is above 100 µM; with MDA-MB-435, above 100 µM; in the test on A498 renal it was > 50 µM and 89.7 µM; in the test with PC-3 prostate, above 100 µM; in the test on RXF 393 renal, above 100 µM; in the test on OVCAR-4 ovarian, above 100 µM. The TGI in the test with CAKI-1 renal is above 100 µM; with SR leukemia it was > 50 µM and 58.5 µM; in the test on OVCAR-8 ovarian it was above 100 µM; in the test with HCT-15 colon, above 100 µM.
